Laboratory results as given in ChEMBL document CHEMBL3882729, “Receptor-type kinase modulators and methods of use” (2009).
pIC50: −log10 of the molar value.

What was measured:
Ephrin type-A receptor 2 = Ephrin type-A receptor 2 (Homo sapiens, UniProt P29317); test: Inhibition of recombinant human N-terminal His6-tagged EphA2 (N598 to R890 residues) expressed in baculovirus using poly-EY as substrate after 180 mins by luciferase coupled chemiluminescence assay
Ephrin type-B receptor 4 = target: T1, Ephrin type-B receptor 4 (Homo sapiens, UniProt P54760); test: Inhibition of recombinant human N-terminal His6-tagged EphB4 kinase domain (E605 to E890 residues) expressed in baculovirus using poly-AEKY as substrate after 150 mins in presence of gamma33P-ATP by liquid scintillation spectrometry
T1 sequence (P54760 whole entry): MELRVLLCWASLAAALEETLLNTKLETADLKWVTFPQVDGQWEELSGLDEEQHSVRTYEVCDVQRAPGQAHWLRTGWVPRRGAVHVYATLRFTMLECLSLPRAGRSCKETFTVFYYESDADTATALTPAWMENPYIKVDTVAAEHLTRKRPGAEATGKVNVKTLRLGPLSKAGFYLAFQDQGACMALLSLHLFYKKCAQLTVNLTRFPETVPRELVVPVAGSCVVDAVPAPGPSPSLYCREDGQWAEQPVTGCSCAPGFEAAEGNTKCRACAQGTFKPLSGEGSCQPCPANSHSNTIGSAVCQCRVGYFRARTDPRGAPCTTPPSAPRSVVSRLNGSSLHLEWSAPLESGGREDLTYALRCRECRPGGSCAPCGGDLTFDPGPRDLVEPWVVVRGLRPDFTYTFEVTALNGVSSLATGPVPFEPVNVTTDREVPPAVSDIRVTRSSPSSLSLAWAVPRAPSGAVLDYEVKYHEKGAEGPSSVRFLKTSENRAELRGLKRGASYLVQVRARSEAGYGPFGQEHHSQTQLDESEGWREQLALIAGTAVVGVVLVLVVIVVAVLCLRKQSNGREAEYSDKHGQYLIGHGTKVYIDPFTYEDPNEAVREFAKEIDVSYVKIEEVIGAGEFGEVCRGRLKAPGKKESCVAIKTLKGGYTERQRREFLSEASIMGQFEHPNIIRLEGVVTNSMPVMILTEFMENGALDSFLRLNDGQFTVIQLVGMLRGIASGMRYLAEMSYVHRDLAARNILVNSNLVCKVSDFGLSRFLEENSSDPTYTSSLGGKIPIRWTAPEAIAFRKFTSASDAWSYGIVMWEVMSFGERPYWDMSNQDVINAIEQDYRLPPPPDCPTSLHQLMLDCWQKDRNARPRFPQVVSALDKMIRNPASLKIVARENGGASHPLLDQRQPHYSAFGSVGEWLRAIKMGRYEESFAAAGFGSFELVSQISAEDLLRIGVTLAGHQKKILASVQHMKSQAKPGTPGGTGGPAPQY

[1] = target: Receptor tyrosine-protein kinase erbB-2 (Homo sapiens, UniProt P04626); test: Inhibition of recombinant human N-terminal GST His6-tagged thrombin cleavage site-fused ErbB2 kinase domain (Q679 to V1255 residues) expressed in baculovirus infected insect Sf9 cells using biotinylated poly-EY as substrate after 60 mins by alphascreen assay
Chain of Receptor tyrosine-protein kinase erbB-2 (P04626 whole entry, the tested form may be a part): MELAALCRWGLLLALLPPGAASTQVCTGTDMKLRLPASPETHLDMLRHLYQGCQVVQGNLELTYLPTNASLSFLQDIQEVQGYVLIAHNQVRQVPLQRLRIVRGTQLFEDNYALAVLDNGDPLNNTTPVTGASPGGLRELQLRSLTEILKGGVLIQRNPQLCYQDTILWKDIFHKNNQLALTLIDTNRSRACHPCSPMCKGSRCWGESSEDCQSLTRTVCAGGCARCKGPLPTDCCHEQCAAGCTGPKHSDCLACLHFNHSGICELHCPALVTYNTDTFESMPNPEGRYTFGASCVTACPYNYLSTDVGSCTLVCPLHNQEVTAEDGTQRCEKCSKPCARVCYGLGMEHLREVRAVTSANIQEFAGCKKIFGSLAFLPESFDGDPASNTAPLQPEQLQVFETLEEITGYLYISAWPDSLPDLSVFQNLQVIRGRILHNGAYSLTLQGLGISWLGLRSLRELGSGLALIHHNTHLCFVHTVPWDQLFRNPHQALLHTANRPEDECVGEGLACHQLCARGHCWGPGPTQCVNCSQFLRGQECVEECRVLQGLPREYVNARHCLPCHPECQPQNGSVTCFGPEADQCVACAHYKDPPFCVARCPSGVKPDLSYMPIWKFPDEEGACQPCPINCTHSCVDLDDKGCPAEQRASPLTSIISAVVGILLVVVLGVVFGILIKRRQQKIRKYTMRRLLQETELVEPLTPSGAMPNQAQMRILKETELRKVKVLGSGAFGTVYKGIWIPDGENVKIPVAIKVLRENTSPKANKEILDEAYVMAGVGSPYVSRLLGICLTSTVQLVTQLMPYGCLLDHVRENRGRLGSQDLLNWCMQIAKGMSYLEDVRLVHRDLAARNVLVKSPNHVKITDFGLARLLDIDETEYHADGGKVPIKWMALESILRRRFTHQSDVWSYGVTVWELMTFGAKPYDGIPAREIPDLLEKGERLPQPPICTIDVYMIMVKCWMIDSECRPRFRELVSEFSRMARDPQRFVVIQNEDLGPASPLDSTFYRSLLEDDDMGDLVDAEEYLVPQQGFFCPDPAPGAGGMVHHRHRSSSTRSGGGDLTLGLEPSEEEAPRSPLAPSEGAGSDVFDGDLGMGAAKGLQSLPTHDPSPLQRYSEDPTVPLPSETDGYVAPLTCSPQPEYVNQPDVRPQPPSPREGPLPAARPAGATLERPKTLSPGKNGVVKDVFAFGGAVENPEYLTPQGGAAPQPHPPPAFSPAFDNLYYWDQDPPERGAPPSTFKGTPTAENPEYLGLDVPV

[2] = target: Vascular endothelial growth factor receptor 2 (Homo sapiens, UniProt P35968); test: Inhibition of recombinant human N-terminal GST-fused KDR (D807 to V1356 residues) expressed in baculovirus infected […] insect Sf9 cells using poly-EY as substrate after 240 mins by luciferase coupled chemiluminescence assay
Chain of Vascular endothelial growth factor receptor 2 (P35968 whole entry, the tested form may be a part): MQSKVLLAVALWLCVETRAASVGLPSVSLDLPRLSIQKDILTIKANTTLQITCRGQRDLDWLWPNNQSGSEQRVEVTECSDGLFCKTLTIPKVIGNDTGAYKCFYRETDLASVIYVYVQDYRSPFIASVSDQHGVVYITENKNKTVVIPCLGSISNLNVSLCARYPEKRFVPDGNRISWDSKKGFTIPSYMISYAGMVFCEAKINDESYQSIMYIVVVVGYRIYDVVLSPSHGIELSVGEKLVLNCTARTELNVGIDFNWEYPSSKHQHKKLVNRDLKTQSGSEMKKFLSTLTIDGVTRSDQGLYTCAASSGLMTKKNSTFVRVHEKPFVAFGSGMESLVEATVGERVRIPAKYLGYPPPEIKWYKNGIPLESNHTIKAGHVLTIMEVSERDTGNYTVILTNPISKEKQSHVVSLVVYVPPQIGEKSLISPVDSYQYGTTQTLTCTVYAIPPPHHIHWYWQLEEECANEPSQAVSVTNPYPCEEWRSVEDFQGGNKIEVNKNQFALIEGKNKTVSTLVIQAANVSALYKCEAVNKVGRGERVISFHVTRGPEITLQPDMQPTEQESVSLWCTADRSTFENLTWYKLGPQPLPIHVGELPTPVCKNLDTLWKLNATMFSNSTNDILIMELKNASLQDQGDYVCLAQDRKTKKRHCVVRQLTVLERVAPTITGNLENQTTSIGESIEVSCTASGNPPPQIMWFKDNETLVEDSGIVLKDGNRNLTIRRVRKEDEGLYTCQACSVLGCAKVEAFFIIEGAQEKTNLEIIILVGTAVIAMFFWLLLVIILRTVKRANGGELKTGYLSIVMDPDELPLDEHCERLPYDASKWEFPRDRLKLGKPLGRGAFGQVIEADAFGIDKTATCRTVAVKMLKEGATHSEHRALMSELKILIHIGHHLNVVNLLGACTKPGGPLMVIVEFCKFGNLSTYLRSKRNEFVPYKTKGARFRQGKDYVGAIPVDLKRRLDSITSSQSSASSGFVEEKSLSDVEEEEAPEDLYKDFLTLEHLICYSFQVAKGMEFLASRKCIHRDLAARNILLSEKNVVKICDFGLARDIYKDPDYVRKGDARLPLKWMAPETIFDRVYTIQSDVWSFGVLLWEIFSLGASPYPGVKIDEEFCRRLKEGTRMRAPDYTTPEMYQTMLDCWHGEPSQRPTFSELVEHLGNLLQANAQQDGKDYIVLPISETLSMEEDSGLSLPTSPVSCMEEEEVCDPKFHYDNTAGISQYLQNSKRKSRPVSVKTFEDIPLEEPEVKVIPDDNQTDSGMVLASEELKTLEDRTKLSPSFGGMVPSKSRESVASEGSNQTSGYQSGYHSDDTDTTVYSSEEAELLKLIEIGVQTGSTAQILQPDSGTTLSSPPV

Chain of Ephrin type-A receptor 2 (P29317 whole entry, the tested form may be a part): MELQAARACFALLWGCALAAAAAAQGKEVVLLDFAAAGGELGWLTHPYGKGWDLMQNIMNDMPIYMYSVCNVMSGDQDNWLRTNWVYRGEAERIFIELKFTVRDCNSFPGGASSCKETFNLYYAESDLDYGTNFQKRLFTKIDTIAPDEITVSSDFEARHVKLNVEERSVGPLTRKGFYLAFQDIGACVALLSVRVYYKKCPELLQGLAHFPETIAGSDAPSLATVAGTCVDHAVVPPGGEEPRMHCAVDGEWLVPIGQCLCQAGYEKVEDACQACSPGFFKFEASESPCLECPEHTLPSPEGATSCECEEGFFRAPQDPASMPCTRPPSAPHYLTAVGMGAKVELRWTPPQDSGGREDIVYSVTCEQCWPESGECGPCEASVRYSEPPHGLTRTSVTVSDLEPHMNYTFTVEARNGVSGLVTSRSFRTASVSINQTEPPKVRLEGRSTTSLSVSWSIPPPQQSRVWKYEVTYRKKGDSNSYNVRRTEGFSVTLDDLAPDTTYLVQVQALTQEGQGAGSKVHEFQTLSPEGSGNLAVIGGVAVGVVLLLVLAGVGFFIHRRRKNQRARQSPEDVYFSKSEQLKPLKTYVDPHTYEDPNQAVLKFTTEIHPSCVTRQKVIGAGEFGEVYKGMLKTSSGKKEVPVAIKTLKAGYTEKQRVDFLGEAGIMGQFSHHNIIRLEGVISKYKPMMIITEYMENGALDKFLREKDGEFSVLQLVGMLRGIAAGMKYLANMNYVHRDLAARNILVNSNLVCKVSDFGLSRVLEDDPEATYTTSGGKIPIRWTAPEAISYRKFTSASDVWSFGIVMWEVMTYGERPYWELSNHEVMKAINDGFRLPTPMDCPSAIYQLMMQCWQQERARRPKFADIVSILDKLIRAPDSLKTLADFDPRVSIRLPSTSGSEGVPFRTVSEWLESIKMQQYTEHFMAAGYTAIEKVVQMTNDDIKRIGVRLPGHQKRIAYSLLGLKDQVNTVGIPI

| SMILES | pIC50 (Ephrin type-A receptor 2) | pIC50 (Ephrin type-B receptor 4) | pIC50 [1] | pIC50 [2] |
| --- | --- | --- | --- | --- |
| COc1cc2c(Nc3ccc(Br)c(Cl)c3)ncnc2cc1O[C@@H]1CO[C@H]2[C@@H]1OC[C@@H]2O | 4.70 to 6.00 | 6.00 to 7.30 | 6.00 to 7.30 | 4.70 to 6.00 |
| CC(C)Oc1cc2c(Nc3ccc(Cl)c(Cl)c3)ncnc2cc1OCC1CN(C)CCO1 (stereo unspecified) | > 7.30 | > 7.30 | > 7.30 | > 7.30 |
| COc1cc2c(Nc3ccc(Cl)c(Cl)c3)ncnc2cc1OCC1CN(C(=O)C2CCCC2)CCO1 (stereo unspecified) | 6.00 to 7.30 | > 7.30 | > 7.30 | 6.00 to 7.30 |
| COc1cc2c(Nc3ccc(Cl)c(Cl)c3Cl)ncnc2cc1OCC1CN(C)CCO1 (stereo unspecified) | > 7.30 | > 7.30 | 6.00 to 7.30 | > 7.30 |
| CCNC(=NC#N)N1CCOC(COc2cc3ncnc(Nc4ccc(Cl)c(Cl)c4)c3cc2OC)C1 (stereo unspecified) | 6.00 to 7.30 | > 7.30 | > 7.30 | 6.00 to 7.30 |
| COc1cc2c(Nc3cc(F)c(Br)c(F)c3)ncnc2cc1OCC1CN(C)CCO1 (stereo unspecified) | 6.00 to 7.30 | 6.00 to 7.30 | 6.00 to 7.30 | > 7.30 |
| COc1cc2c(Nc3ccc(Cl)c(Cl)c3)ncnc2cc1OCC1CN(C)C(C)(C)C(=O)O1 (stereo unspecified) | 6.00 to 7.30 | > 7.30 | 6.00 to 7.30 | 6.00 to 7.30 |
| COc1cc2c(Nc3ccc(Br)c(Cl)c3)ncnc2cc1O[C@H]1CO[C@H]2[C@@H]1OC[C@@H]2N1CCOCC1 | 4.70 to 6.00 | 6.00 to 7.30 | 4.70 to 6.00 | 4.70 to 6.00 |
| CCN1CCc2nc(COc3cc4ncnc(Nc5ccc(Cl)c(Cl)c5)c4cc3OC)sc2C1 | 6.00 to 7.30 | > 7.30 | > 7.30 | 6.00 to 7.30 |
| COc1cc2c(Nc3ccc(Cl)c(Cl)c3)ncnc2cc1OCc1nc2c(s1)CN(C)CC2 | 6.00 to 7.30 | > 7.30 | > 7.30 | 6.00 to 7.30 |
| COc1cc2c(Nc3ccc(Cl)c(Cl)c3)ncnc2cc1OCCC1CN(C)C(C)(C)CO1 (stereo unspecified) | 6.00 to 7.30 | 6.00 to 7.30 | 6.00 to 7.30 | 6.00 to 7.30 |
| COc1cc2c(Nc3ccc(Cl)c(Cl)c3)ncnc2cc1OCC1CN(S(=O)(=O)CCCCl)CCO1 (stereo unspecified) | 6.00 to 7.30 | > 7.30 | 6.00 to 7.30 | 6.00 to 7.30 |
| COc1cc2c(Nc3ccc(F)c(Cl)c3F)ncnc2cc1OCC1CN(C)C(C)(C)CO1 (stereo unspecified) | > 7.30 | > 7.30 | 6.00 to 7.30 | 6.00 to 7.30 |
| COc1cc2c(Nc3ccc(Br)c(Cl)c3Cl)ncnc2cc1OCC1CN(C)CCO1 (stereo unspecified) | 6.00 to 7.30 | > 7.30 | 6.00 to 7.30 | 6.00 to 7.30 |
| COc1cc2c(Nc3cc(Cl)c(Cl)c(Cl)c3)ncnc2cc1OCC1CN(C)CCO1 (stereo unspecified) | 6.00 to 7.30 | > 7.30 | 6.00 to 7.30 | 6.00 to 7.30 |
| CC(C)Oc1cc2c(Nc3ccc(Cl)c(Cl)c3)ncnc2cc1OCC1CNCCO1 (stereo unspecified) | > 7.30 | > 7.30 | > 7.30 | > 7.30 |
| COc1cc2c(Nc3cccc(Cl)c3F)ncnc2cc1OCC1CN(/C(N)=N/C#N)CCCO1 (stereo unspecified) | 6.00 to 7.30 | > 7.30 | > 7.30 | 6.00 to 7.30 |
| COc1cc2c(Nc3ccc(C)c(Cl)c3Cl)ncnc2cc1OCC1CN(C)CCO1 (stereo unspecified) | 6.00 to 7.30 | 6.00 to 7.30 | 4.70 to 6.00 | > 7.30 |
| COc1cc2c(Nc3ccc(Cl)c(Cl)c3)ncnc2cc1OCCC1CN(C(=O)OC(C)(C)C)C(C)(C)CO1 (stereo unspecified) | 4.70 to 6.00 | 4.70 to 6.00 | 4.70 to 6.00 | 4.70 to 6.00 |
| COc1cc2c(Nc3ccc(Cl)c(Cl)c3F)ncnc2cc1OC[C@@H]1CN(C)CC(=O)N1 | 6.00 to 7.30 | 6.00 to 7.30 | 6.00 to 7.30 | 6.00 to 7.30 |
| COc1cc2c(Nc3cc(Cl)c(Cl)cc3F)ncnc2cc1OCC1CN(C)C(C)(C)CO1 (stereo unspecified) | > 7.30 | > 7.30 | > 7.30 | > 7.30 |
| COc1cc2c(Nc3ccc(Cl)c(Cl)c3)ncnc2cc1OCCC1CN(C)CC(C)(C)O1 (stereo unspecified) | 4.70 to 6.00 | 6.00 to 7.30 | 6.00 to 7.30 | 6.00 to 7.30 |
| CCOc1cc2c(Nc3ccc(Cl)c(Cl)c3)ncnc2cc1OCC1CNCCO1 (stereo unspecified) | – | > 7.30 | > 7.30 | > 7.30 |
| COc1cc2c(Nc3ccc(Cl)c(Cl)c3)ncnc2cc1OCc1csc(CN2CCCC2)n1 | 6.00 to 7.30 | 6.00 to 7.30 | – | 6.00 to 7.30 |

| SMILES | pIC50 (Ephrin type-A receptor 2) | pIC50 (Ephrin type-B receptor 4) | pIC50 [1] | pIC50 [2] |
| --- | --- | --- | --- | --- |
| COc1cc2c(Nc3ccc(Br)cc3Br)ncnc2cc1OCC1CN(C)CCO1 (stereo unspecified) | 6.00 to 7.30 | 6.00 to 7.30 | – | 6.00 to 7.30 |
| COCCOc1cc2c(Nc3ccc(Cl)c(Cl)c3)ncnc2cc1OCC1CN(C)CCO1 (stereo unspecified) | 6.00 to 7.30 | > 7.30 | – | 6.00 to 7.30 |
| COc1cc2c(Nc3ccc(Cl)c(Cl)c3)ncnc2cc1OCC1CN(C2CCOCC2)CCO1 (stereo unspecified) | 6.00 to 7.30 | > 7.30 | – | 6.00 to 7.30 |
| CCCCCN1CCOC(COc2cc3ncnc(Nc4ccc(Cl)c(Cl)c4)c3cc2OC)C1 (stereo unspecified) | 6.00 to 7.30 | 6.00 to 7.30 | – | 6.00 to 7.30 |
| CCCCS(=O)(=O)N1CCOC(COc2cc3ncnc(Nc4ccc(Cl)c(Cl)c4)c3cc2OC)C1 (stereo unspecified) | 6.00 to 7.30 | 6.00 to 7.30 | – | 6.00 to 7.30 |
| COc1cc2c(Nc3ccc(Cl)c(Cl)c3)ncnc2cc1OCC1CNCC(C)(C)O1 (stereo unspecified) | – | 6.00 to 7.30 | 6.00 to 7.30 | > 7.30 |
| COc1cc2c(Nc3ccc(Cl)c(Cl)c3)ncnc2cc1OCC1CN(CCC2CCCCC2)CCO1 (stereo unspecified) | 6.00 to 7.30 | 6.00 to 7.30 | – | 6.00 to 7.30 |
| CC#CCN1CCOC(COc2cc3ncnc(Nc4ccc(Cl)c(Cl)c4)c3cc2OC)C1 (stereo unspecified) | 6.00 to 7.30 | 6.00 to 7.30 | – | 6.00 to 7.30 |
| COc1cc2c(Nc3ccc(F)c(Cl)c3)ncnc2cc1OCC1CN(C)CCO1 (stereo unspecified) | 6.00 to 7.30 | 6.00 to 7.30 | – | 6.00 to 7.30 |
| CCN1CCN(C(C)=O)CC1COc1cc2ncnc(Nc3ccc(Cl)c(Cl)c3)c2cc1OC (stereo unspecified) | 6.00 to 7.30 | > 7.30 | – | 4.70 to 6.00 |
| CCCCCCCN1CCOC(COc2cc3ncnc(Nc4ccc(Cl)c(Cl)c4)c3cc2OC)C1 (stereo unspecified) | 4.70 to 6.00 | 6.00 to 7.30 | – | 6.00 to 7.30 |
| COc1cc2c(Nc3ccc(Cl)c(Cl)c3)ncnc2cc1OCC1CN(C(=O)C(C)(C)C)CCO1 (stereo unspecified) | 6.00 to 7.30 | 6.00 to 7.30 | – | 6.00 to 7.30 |
| CCC(C(=O)N1CCOC(COc2cc3ncnc(Nc4ccc(Cl)c(Cl)c4)c3cc2OC)C1)c1ccccc1 (stereo unspecified) | 4.70 to 6.00 | 6.00 to 7.30 | – | 6.00 to 7.30 |
| COc1cc2c(Nc3ccc(Cl)c(Cl)c3)ncnc2cc1OCC1CN(C)CC(C)(C)O1 (stereo unspecified) | – | 6.00 to 7.30 | 6.00 to 7.30 | 6.00 to 7.30 |
| CN1CCOC(COc2cc3ncnc(Nc4ccc(Cl)c(Cl)c4)c3cc2O)C1 (stereo unspecified) | 6.00 to 7.30 | 6.00 to 7.30 | – | 6.00 to 7.30 |
| COc1cc2c(Nc3ccc(Cl)c(Cl)c3)ncnc2cc1OCC1CN(CCO)CCO1 (stereo unspecified) | 6.00 to 7.30 | 6.00 to 7.30 | – | 6.00 to 7.30 |
| COc1cc2c(Nc3ccc(Cl)c(Cl)c3)ncnc2cc1OCc1noc(C2CCCN2C)n1 (stereo unspecified) | 6.00 to 7.30 | 6.00 to 7.30 | – | 6.00 to 7.30 |
| COc1cc2c(Nc3ccc(Cl)c(Cl)c3)ncnc2cc1OCC1CN(C2CCC2)CCO1 (stereo unspecified) | 6.00 to 7.30 | 6.00 to 7.30 | – | > 7.30 |
| COC(=O)CCCCN1CCOC(COc2cc3ncnc(Nc4ccc(Cl)c(Cl)c4)c3cc2OC)C1 (stereo unspecified) | 6.00 to 7.30 | 6.00 to 7.30 | – | 6.00 to 7.30 |
| COc1cc2c(Nc3ccc(Cl)c(Cl)c3)ncnc2cc1OCC1CN(CCCOC2CCCCO2)CCCO1 (stereo unspecified) | 6.00 to 7.30 | > 7.30 | – | > 7.30 |
| COc1cc2c(Nc3ccc(Cl)c(Cl)c3)ncnc2cc1OCC1CN(CCc2ccccc2)CCO1 (stereo unspecified) | 4.70 to 6.00 | 6.00 to 7.30 | – | 6.00 to 7.30 |
| COc1cc2c(Nc3ccc(Br)cc3C)ncnc2cc1OCC1CN(C)CCO1 (stereo unspecified) | 6.00 to 7.30 | 6.00 to 7.30 | – | 6.00 to 7.30 |
| CCN1CCN(C)CC1COc1cc2ncnc(Nc3ccc(Cl)c(Cl)c3)c2cc1OC (stereo unspecified) | 6.00 to 7.30 | 6.00 to 7.30 | – | 4.70 to 6.00 |
| COc1cc2c(Nc3ccc(Cl)c(Cl)c3)ncnc2cc1OCC1OCCN(CC(=O)c2ccccc2)C1=O (stereo unspecified) | 6.00 to 7.30 | 6.00 to 7.30 | – | 6.00 to 7.30 |
